Results as given in patent US9656990B2, “Cathepsin cysteine protease inhibitors” (Merck Sharp & Dohme Corp., priority 2014, dated 2017).

Columns and labels:
[1] = molecular target: human cathepsin K (UniProt P43236, Y175D/V274L, species not given); experiment: Cathepsin K Assay; type: biochemical; conditions: IP from dose response curve; Z-Leu-Arg-AMC substrate, pH 5.5; read-out: hrbCat K (IP (nM))
[2] = molecular target: T1, human cathepsin F (Homo sapiens, UniProt Q9UBX1); experiment: Cathepsin F Assay; type: biochemical; conditions: IP from dose response curve; Z-Phe-Arg-AMC substrate, pH 5.5; read-out: hCat F (IP (nM))
T1 sequence (Q9UBX1 271-484): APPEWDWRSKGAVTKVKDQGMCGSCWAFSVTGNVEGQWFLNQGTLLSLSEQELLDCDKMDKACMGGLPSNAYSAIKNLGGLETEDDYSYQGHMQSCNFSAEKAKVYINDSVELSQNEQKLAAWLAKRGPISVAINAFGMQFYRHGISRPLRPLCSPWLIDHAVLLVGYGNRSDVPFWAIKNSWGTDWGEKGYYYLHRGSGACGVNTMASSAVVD
How it was run: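 Human cathepsin F (10 nM) preincubated 15 min at room temperature with compounds in 50 mM MES pH 5.5, 2.5 mM EDTA, 2.5 mM DTT, 10% DMSO. Z-Phe-Arg-AMC (8 μM) added; AMC release read by fluorescence (Ex 360/Em 460 nm) over 20 min, inhibition fit to dose-response model.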

N#CC1(NC(=O)[C@@H]2CCCC[C@H]2c2nn(-c3ccncc3)cc2-c2ccc(N3CCS(=O)(=O)CC3)cc2)CC1 [Example 163, (1R,2R)-N-(1-cyanocyclopropyl)-2-(4-(4-(1,1-dioxidothiomorpholino)phen-yl)-1-(pyridin-4-yl)-1H-pyrazol-3-yl)cyclohexanecarboxamide]
IC50 [1]: 0.32 nM | IC50 [2]: 237 nM

CN=S1(=O)CCN(c2ccc(-c3cn(-c4ccc(F)cn4)nc3[C@@H]3CC(F)(F)CC[C@H]3C(=O)NC(C)C#N)cc2)CC1 (single isomer, unassigned) [Example 25, (1R,2R)-N-((S or R)-1-cyanoethyl)-4,4-difluoro-2-(1-(5-fluoropyridin-2-yl)-4-(4-(1-(methylimino)-1-oxidothiomorpholino)phenyl)-1H-pyrazol-3-yl)cyclohexanecarboxamide]
IC50 [1]: 0.52 nM | IC50 [2]: 431 nM

N#CC1(NC(=O)[C@@H]2CCCC[C@H]2c2nn(-c3cccc(F)c3)cc2-c2ccc(N3CCS(=O)(=O)CC3)cc2)CC1 [Example 86, (1R,2R)-N-(1-cyanocyclopropyl)-2-(4-(4-(1,1-dioxidothiomorpholino)phen-yl)-1-(3-fluorophenyl)-1H-pyrazol-3-yl)cyclohexanecarboxamide]
IC50 [1]: 0.33 nM | IC50 [2]: 268 nM

N#CC1(NC(=O)[C@@H]2CCCC[C@H]2c2nn(-c3c(F)cccc3F)cc2-c2ccc(N3CCS(=O)(=O)CC3)cc2)CC1 [Example 133, (1R,2R)-N-(1-cyanocyclopropyl)-2-(1-(2,6-difluorophenyl)-4-(4-(1,1-dioxidothiomorpholino)phen-yl)-1H-pyrazol-3-yl)cyclohexanecarboxamide]
IC50 [1]: 3.56 nM | IC50 [2]: 2340 nM

N#CC1(NC(=O)[C@@H]2CCCC[C@H]2c2nn(-c3cncc(F)c3)cc2-c2ccc(N3CCS(=O)(=O)CC3)cc2)CC1 [Example 165, (1R,2R)-N-(1-cyanocyclopropyl)-2-(4-(4-(1,1-dioxidothiomorpholino)phen-yl)-1-(5-fluoropyridin-3-yl)-1H-pyrazol-3-yl)cyclohexanecarboxamide]
IC50 [1]: 0.9 nM | IC50 [2]: 319 nM

N#CC(CC(F)(F)F)NC(=O)[C@@H]1CC(F)(F)CC[C@H]1c1nn2ccccc2c1-c1ccc(N2CCS(=O)(=O)CC2)cc1 (single isomer, unassigned) [Example 74, (1R,2R)-N-((S or R)-1-cyano-3,3,3-trifluoropropyl)-2-(3-(4-(1,1-dioxidothiomorpholino)phen-yl)pyrazolo[1,5-a]pyridin-2-yl)-5,5-difluorocyclohexanecarbox-amide]
IC50 [1]: 7.69 nM | IC50 [2]: 252 nM

C[C@@H](C#N)NC(=O)[C@@H]1CC(F)(F)CC[C@H]1c1nn(-c2ccc(F)cc2)c(CO)c1-c1ccc(N2CCS(=O)(=O)CC2)cc1 [Example 61, (1R,2R)-N-((S)-1-cyanoethyl)-2-(4-(4-(1,1-dioxidothiomorpholino)phen-yl)-1-(4-fluorophenyl)-5-(hydroxymethyl)-1H-pyrazol-3-yl)-5,5-difluorocyclohexanecarbox-amide]
IC50 [1]: 1.61 nM | IC50 [2]: 121 nM

N#CC1(NC(=O)[C@@H]2CCCC[C@H]2c2nn(-c3cc(F)c(F)c(F)c3)cc2-c2ccc(N3CCS(=O)(=O)CC3)cc2)CC1 [Example 128, (1R,2R)-N-(1-cyanocyclopropyl)-2-(4-(4-(1,1-dioxidothiomorpholino)phen-yl)-1-(3,4,5-trifluorophenyl)-1H-pyrazol-3-yl)cyclohexanecarboxamide]
IC50 [1]: 0.79 nM | IC50 [2]: 319 nM

N#CC1(NC(=O)[C@@H]2CCCC[C@H]2c2nn(-c3ccc(F)cn3)c(CO)c2-c2ccc(N3CCS(=O)(=O)CC3)cc2)CC1 [Example 30, (1R,2R)-N-(1-cyanocyclopropyl)-2-(4-(4-(1,1-dioxidothiomorpholino)phen-yl)-1-(5-fluoropyridin-2-yl)-5-(hydroxymethyl)-1H-pyrazol-3-yl)cyclohexanecarboxamide]
IC50 [1]: 11 nM | IC50 [2]: 5870 nM

N#CC1(NC(=O)[C@@H]2CCC(F)(F)C[C@H]2c2nn(-c3ccc(F)cc3)cc2-c2ccc(N3CCS(=O)(=O)CC3)cc2)CC1 [Example 108, (1R,2R)-N-(1-cyanocyclopropyl)-2-(4-(4-(1,1-dioxidothiomorpholino)phen-yl)-1-(4-fluorophenyl)-1H-pyrazol-3-yl)-4,4-difluorocyclohexanecarbox-amide]
IC50 [1]: 2.32 nM | IC50 [2]: 1010 nM

Cc1ccc(-n2cc(-c3ccc(N4CCS(=O)(=O)CC4)cc3)c([C@@H]3CCCC[C@H]3C(=O)NC3(C#N)CC3)n2)c(C#N)c1 [Example 107, (1R,2R)-2-(1-(2-cyano-4-methylphenyl)-4-(4-(1,1-dioxidothiomorpholino)phen-yl)-1H-pyrazol-3-yl)-N-(1-cyanocyclopropyl)cyclohex-anecarboxamide]
IC50 [1]: 3 nM | IC50 [2]: 1400 nM

N#Cc1ccc(-n2cc(-c3ccc(N4CCS(=O)(=O)CC4)cc3)c([C@@H]3CCCC[C@H]3C(=O)NC3(C#N)CC3)n2)cc1 [Example 100, (1R,2R)-N-(1-cyanocyclopropyl)-2-(1-(4-cyanophenyl)-4-(4-(1,1-dioxidothiomorpholino)phen-yl)-1H-pyrazol-3-yl)cyclohexanecarboxamide]
IC50 [1]: 0.87 nM | IC50 [2]: 212 nM

N#Cc1cccc(-n2cc(-c3ccc(N4CCS(=O)(=O)CC4)cc3)c([C@@H]3CCCC[C@H]3C(=O)NC3(C#N)CC3)n2)c1 [Example 101, (1R,2R)-N-(1-cyanocyclopropyl)-2-(1-(3-cyanophenyl)-4-(4-(1,1-dioxidothiomorpholino)phen-yl)-1H-pyrazol-3-yl)cyclohexanecarboxamide]
IC50 [1]: 0.99 nM | IC50 [2]: 452 nM

CC(C)[C@@H](C#N)NC(=O)[C@@H]1CC(F)(F)CC[C@H]1c1nn(-c2ccc(F)cn2)c(CO)c1-c1ccc(N2CCS(=O)(=O)CC2)cc1 [Example 69, (1R,2R)-N-((S)-1-cyano-2-methylpropyl)-2-(4-(4-(1,1-dioxidothiomorpholino)phen-yl)-1-(5-fluoropyridin-2-yl)-5-(hydroxymethyl)-1H-pyrazol-3-yl)-5,5-difluorocyclohexanecarbox-amide]
IC50 [1]: 2.68 nM | IC50 [2]: 225 nM

CN=S1(=O)CCN(c2ccc(-c3cn(-c4ccc(F)cn4)nc3[C@@H]3CC[C@H](F)C[C@H]3C(=O)N[C@@H](C)C#N)cc2)CC1 [Example 38, (1R,2R,5S)-N-((S)-1-cyanoethyl)-5-fluoro-2-(1-(5-fluoropyridin-2-yl)-4-(4-(1-(methylimino)-1-oxidothiomorpholino)phenyl)-1H-pyrazol-3-yl)cyclohexanecarboxamide]
IC50 [1]: 1.14 nM | IC50 [2]: 855 nM

Cc1c(-c2ccc(N3CCS(=O)(=O)CC3)cc2)c([C@@H]2CCC(F)(F)C[C@H]2C(=O)N[C@H](C#N)C(C)C)nn1-c1ccc(F)cn1 [Example 31, (1R,2R)-N-((S)-1-cyano-2-methylpropyl)-2-(4-(4-(1,1-dioxidothiomorpholino)phen-yl)-1-(5-fluoropyridin-2-yl)-5-methyl-1H-pyrazol-3-yl)-5,5-difluorocyclohexanecarbox-amide]
IC50 [1]: 1.63 nM | IC50 [2]: 115 nM

N#CC1(NC(=O)[C@@H]2CCCC[C@H]2c2nn(-c3ccc(F)cc3)cc2-c2ccc(N3CCS(=N)(=O)CC3)cc2)CC1 [Example 129, (1R,2R)-N-(1-cyanocyclopropyl)-2-(1-(4-fluorophenyl)-4-(4-(1-imino-1-oxidothiomorpholino)phenyl)-1H-pyrazol-3-yl)cyclohexanecarboxamide]
IC50 [1]: 1.84 nM | IC50 [2]: 932 nM

N#CC1(NC(=O)[C@@H]2CCCC[C@H]2c2nn(-c3ccccc3F)cc2-c2ccc(N3CCS(=O)(=O)CC3)cc2)CC1 [Example 98, (1R,2R)-N-(1-cyanocyclopropyl)-2-(4-(4-(1,1-dioxidothiomorpholino)phen-yl)-1-(2-fluorophenyl)-1H-pyrazol-3-yl)cyclohexanecarboxamide]
IC50 [1]: 0.91 nM | IC50 [2]: 946 nM

N#Cc1cc(F)ccc1-n1cc(-c2ccc(N3CCS(=O)(=O)CC3)cc2)c([C@@H]2CCCC[C@H]2C(=O)NC2(C#N)CC2)n1 [Example 106, (1R,2R)-2-(1-(2-cyano-4-fluorophenyl)-4-(4-(1,1-dioxidothiomorpholino)phen-yl)-1H-pyrazol-3-yl)-N-(1-cyanocyclopropyl)cyclohex-anecarboxamide]
IC50 [1]: 2.88 nM | IC50 [2]: 1920 nM

CC1(C)CCC(C(=O)NC2(C#N)CC2)C(c2nn(-c3ccc(F)cc3)cc2-c2ccc(N3CCS(=O)(=O)CC3)cc2)C1 [Example 117, (1S,2S, or 1R,2R)-N-(1-cyanocyclopropyl)-2-(4-(4-(1,1-dioxidothiomorpholino)phen-yl)-1-(4-fluorophenyl)-1H-pyrazol-3-yl)-4,4-dimethylcyclohexanecarbox-amide]
IC50 [1]: 13.9 nM | IC50 [2]: 1570 nM

Cc1c(-c2ccc(N3CCS(=N)(=O)CC3)cc2)c([C@@H]2CCCC[C@H]2C(=O)NC2(C#N)CC2)nn1-c1ncccc1F [Example 50, (1R,2R)-N-(1-cyanocyclopropyl)-2-(1-(3-fluoropyridin-2-yl)-4-(4-(1-imino-1-oxidothiomorpholino)phenyl)-5-methyl-1H-pyrazol-3-yl)cyclohexanecarboxamide]
IC50 [1]: 14 nM | IC50 [2]: 7790 nM

CS(=O)(=O)C1CN(c2ccc(-c3cn(-c4ccc(F)cc4)nc3[C@@H]3CCCC[C@H]3C(=O)NC3(C#N)CC3)cc2)C1 [Example 94, (1R,2R)-N-(1-cyanocyclopropyl)-2-(1-(4-fluorophenyl)-4-(4-(3-(methylsulfonyl)azetidin-1-yl)phenyl)-1H-pyrazol-3-yl)cyclohexanecarboxamide]
IC50 [1]: 2.57 nM | IC50 [2]: 2780 nM
